Data as given in patent US9453226B2, “Protection of cells from Alu-RNA-induced degeneration and inhibitors for protecting cells” (UNIVERSITY OF KENTUCKY RESEARCH FOUNDATION, priority 2011, dated 2016).

Tests used:
IRAK1/4 phosphorylation = IRAK1/4 phosphorylation in human RPE cells (Western blot); format: cell-based; details: human RPE cells; normalized to Vinculin
Description: Protein abundance was assessed by Western blot analysis using antibodies against Caspase-1 (1:500; Invitrogen), pIRAK1 (1:500; Thermo Scientific), pIRAK4 (1:500, Abbomax), PYCARD (1:200, Santa Cruz Biotechnology), NLRP3 (1:500, Enzo Life Sciences) and Vinculin (1:1,000; Sigma-Aldrich). Caspase-1 activity was visualized using Caspalux1 E1D2 (Oncolmmunin) according to manufacturer's instructions.
Tissues or cells were homogenized in lysis buffer (10 mM Tris base, pH 7.4, 150 mM NaCl, 1 mM EDTA, 1 mM EGTA, 1% Triton X-100, 0.5% NP-40, protease and phosphatase inhibitor cocktail (Roche)). Protein concentrations were determined using a Bradford assay kit (Bio-Rad) with bovine serum albumin as a standard. Proteins (40-100 μg) were run on NuPAGE Bis-Tris gels (Invitrogen) and transferred to Immun-Blot PVDF membranes (Bio-Rad). Cells were scraped in hot Laemmli buffer (62.5 mM Tris base, pH 6.8, 2% SDS, 5% 2-Mercaptoethanol, 10% Glycerol, 0.01% Bromophenol Blue). Samples were boiled and run on 4-20% NuPAGE Tris-Glycine gels (Invitrogen). The transferred membranes were blocked for 1 h at RT and incubated with antibodies against human Caspase-1 (1:500; Invitrogen), mouse Caspase 1 (1:500; MBL), NLRP3 (1:1000; Enzo Life Sciences), PYCARD (1:1000, RayBiotech), phospho-IRAK1 (S376) (1:500, Thermo Scientific), phospho-IRAK4 (T345) (1:500, AbboMax), DICER1 (1:2,000; Bethyl), MyD88 (1:1,000; Cell Signaling), and mouse IL-18 (1:200; MBL) at 4° C. overnight. Protein loading was assessed by immunoblotting using an anti-Vinculin antibody (1:1,000; Sigma-Aldrich). The secondary antibodies were used (1:5,000) for 1 h at RT. The signal was visualized by enhanced chemiluminescence (ECL plus) and captured by VisionWorksLS Image Acquisition and Analysis software (Version 6.7.2, UVP, LLC).

RPE = test: pAlu-induced RPE degeneration in wild-type mice, inhibitors given intravitreously; format: in vivo; details: WT mice, subretinal pAlu, inhibitor intravitreous, fundus photographs and ZO-1 flat mounts
Description: Subretinal injection and imaging. Subretinal injections (1 μL) were performed using a Pico-Injector (PLI-100, Harvard Apparatus). Plasmids were transfected in vivo using 10% Neuroporter (Genlantis). Fundus imaging was performed on a TRC-50 IX camera (Topcon) linked to a digital imaging system (Sony). RPE flat mounts were immunolabeled using antibodies against zonula occludens-1 (Invitrogen).
Retinal photographs of dilated mouse eyes were taken with a TRC-50 IX camera (Topcon) linked to a digital imaging system (Sony).
Human eyes fixed in 2-4% paraformaldehyde were prepared as eyecups, cryoprotected in 30% sucrose, embedded in optimal cutting temperature compound (Tissue-Tek OCT; Sakura Finetek), and cryosectioned into 10 μm sections. Depigmentation was achieved using 0.25% potassium permanganate and 0.1% oxalic acid. Immunohistochemical staining was performed with the rabbit antibody against NLRP3 (1:100, Sigma Aldrich) or rabbit antibody against Caspase-1 (prediluted, AbCam). Isotype IgG was substituted for the primary antibody to assess the specificity of the staining. Bound antibody was detected with biotin-conjugated secondary antibodies, followed by incubation with ABC reagent and visualized by Vector Blue (Vector Laboratories). Levamisole (Vector Laboratories) was used to block endogenous alkaline phosphatase activity. Slides were washed in PBS, counterstained with neutral red (Fisher Scientific), rinsed with deionized water, air dried, and then mounted in Vectamount (Vector Laboratories). Fluorescent labeling of human tissue was performed with the rabbit antibody against PYCARD (1:50, Clone N-15, Santa Cruz Biotechnology) Immunolabeling was visualized by fluorescently conjugated anti-rabbit secondary antibody (Invitrogen). Tissue autofluorescence was quenched by incubating the sections in 0.3% Sudan black (Fisher Scientific). Sections were mounted in Vectashield with DAPI (Vector Laboratories). Mouse RPE/choroid flat mounts were fixed with 4% paraformaldehyde or 100% methanol, stained with rabbit antibodies against human zonula occludens-1 (1:100, Invitrogen) and visualized with Alexa594 (Invitrogen). All images were obtained using the Leica SP-5 or Zeiss Axio Observer Z1 microscopes.
Subretinal injections (1 μL) in mice were performed using a Pico-Injector (PLI-100, Harvard Apparatus). In vivo transfection of plasmids coding for two different Alu sequences (pAlu) or empty control vector (pNull) (Bennett et al., 2008; Kaneko et al., 2011; Shaikh et al., 1997) was achieved using 10% Neuroporter (Genlantis). AAV1-BEST1-Cre (Alexander and Hauswirth, 2008) or AAV1-BEST1-GFP were injected at 1.0×10^11 pfu/mL and in vitro transcribed Alu RNA was injected at 0.3 mg/mL.
siRNAs formulated in siRNA buffer (20 mM KCL, 0.2 mM MgCl2 in HEPES buffer at pH 7.5; Dharmacon) or phosphate buffered saline (PBS; Sigma-Aldrich); the TLR4 antagonist Ultra Pure Rhodobacter sphaeroides LPS (LPS-RS, InvivoGen), a peptide inhibitor of MyD88 homodimerization IMG-2005 (IMGENEX), control inhibitor (IMGENEX), recombinant IL-18 (Medical & Biological Laboratories), neutralizing rat antibodies against mouse IL-1β (IMGENEX), neutralizing rat antibodies against mouse IL-18 (Medical & Biological Laboratories), isotype control IgGs (R&D Systems or eBioscience as appropriate), Caspase-1 inhibitor Z-WEHD-FMK (R&D Systems), Caspase control inhibitor Z-FA-FMK (R&D Systems), DPI (Enzo Life Sciences), Mito-TEMPO (Enzo Life Sciences), MitoQ and dTPP (both adsorbed to cyclodextrin and provided by M.P. Murphy, MRC Mitochondrial Biology Unit), and gp91ds-tat and scrambled gp91 ds-tat (both Anaspec), were dissolved in phosphate buffered saline (PBS; Sigma-Aldrich) or dimethyl sulfoxide (DMSO; Sigma-Aldrich), and injected into the vitreous humor in a total volume of 1 μL with a 33-gauge Exmire microsyringe (Ito Corporation). […] As a control, Luc siRNA-chol (17+2 nt) was used with identical dosages. […]

Substance | Alu RNA-induced IRAK1/4 phosphorylation (IRAK1/4 phosphorylation) | pAlu-induced RPE degeneration (RPE) | pAlu-induced RPE degeneration (RPE; listed as Caspase-1 peptide inhibitor)
Z-WEHD-FMK | reduced | blocked | protects
DRQIKIWFQNRRMKWKKRDVLPGT [MyD88 inhibitory peptide] | reduces | inhibited | 
